Measured values: ChEMBL document CHEMBL4507291 (2021)

What was measured:
[1] = molecular target: T1, 5-hydroxytryptamine receptor 2C (Homo sapiens) (UniProt P28335); settings: Compound concentration 10.0 uM
T1 sequence (whole entry): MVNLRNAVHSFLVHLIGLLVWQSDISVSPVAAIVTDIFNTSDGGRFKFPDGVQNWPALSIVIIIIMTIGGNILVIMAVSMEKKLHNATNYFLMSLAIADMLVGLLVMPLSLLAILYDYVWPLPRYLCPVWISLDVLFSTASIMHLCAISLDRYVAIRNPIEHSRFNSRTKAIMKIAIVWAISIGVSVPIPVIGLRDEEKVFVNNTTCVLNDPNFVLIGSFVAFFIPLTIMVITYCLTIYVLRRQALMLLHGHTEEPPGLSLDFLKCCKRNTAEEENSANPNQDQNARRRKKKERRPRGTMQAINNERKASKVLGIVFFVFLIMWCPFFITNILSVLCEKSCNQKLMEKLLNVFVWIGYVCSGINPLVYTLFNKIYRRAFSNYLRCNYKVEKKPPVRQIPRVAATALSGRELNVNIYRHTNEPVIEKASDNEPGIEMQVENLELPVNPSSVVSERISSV

[2] = molecular target: Serine/threonine-protein kinase STK11 (Homo sapiens) (UniProt Q15831)
[3] = molecular target: Serine/threonine-protein kinase pim-3 (Homo sapiens) (UniProt Q86V86)
[4] = molecular target: Homeodomain-interacting protein kinase 2 (Homo sapiens) (UniProt Q9H2X6)
[5] = molecular target: T2, Protein kinase C epsilon type (Homo sapiens) (UniProt Q02156)
T2 sequence (whole entry): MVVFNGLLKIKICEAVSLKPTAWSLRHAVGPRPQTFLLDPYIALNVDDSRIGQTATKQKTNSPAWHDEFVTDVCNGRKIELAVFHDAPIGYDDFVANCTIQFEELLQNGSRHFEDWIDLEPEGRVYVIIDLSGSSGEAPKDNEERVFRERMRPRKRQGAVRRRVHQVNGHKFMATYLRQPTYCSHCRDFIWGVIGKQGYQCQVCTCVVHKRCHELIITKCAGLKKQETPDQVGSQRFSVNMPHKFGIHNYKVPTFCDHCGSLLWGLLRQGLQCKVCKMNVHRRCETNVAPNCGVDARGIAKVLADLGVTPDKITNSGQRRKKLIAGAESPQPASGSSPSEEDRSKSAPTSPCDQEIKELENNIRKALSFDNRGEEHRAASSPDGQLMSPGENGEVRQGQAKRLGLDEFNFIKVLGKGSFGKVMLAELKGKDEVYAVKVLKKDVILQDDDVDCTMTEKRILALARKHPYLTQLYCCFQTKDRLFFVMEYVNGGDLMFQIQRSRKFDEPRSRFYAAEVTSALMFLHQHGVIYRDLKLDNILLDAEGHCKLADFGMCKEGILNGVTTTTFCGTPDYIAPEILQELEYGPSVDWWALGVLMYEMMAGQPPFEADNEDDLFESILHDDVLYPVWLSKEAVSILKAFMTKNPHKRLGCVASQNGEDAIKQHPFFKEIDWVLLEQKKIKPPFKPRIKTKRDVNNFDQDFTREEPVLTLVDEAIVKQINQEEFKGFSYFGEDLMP

[6] = molecular target: Calcium/calmodulin-dependent protein kinase type II subunit alpha (Homo sapiens) (UniProt Q9UQM7)
[7] = molecular target: Serine/threonine-protein kinase 38 (Homo sapiens) (UniProt Q15208)
[8] = molecular target: Serine/threonine-protein kinase PRP4 homolog (Homo sapiens) (UniProt Q13523)
[9] = molecular target: Tyrosine-protein kinase ABL2 (Homo sapiens) (UniProt P42684)
[10] = molecular target: Activin receptor type-2A (Homo sapiens) (UniProt P27037)
[11] = molecular target: T3, Inhibitor of nuclear factor kappa-B kinase subunit epsilon (Homo sapiens) (UniProt Q14164)
T3 sequence (whole entry): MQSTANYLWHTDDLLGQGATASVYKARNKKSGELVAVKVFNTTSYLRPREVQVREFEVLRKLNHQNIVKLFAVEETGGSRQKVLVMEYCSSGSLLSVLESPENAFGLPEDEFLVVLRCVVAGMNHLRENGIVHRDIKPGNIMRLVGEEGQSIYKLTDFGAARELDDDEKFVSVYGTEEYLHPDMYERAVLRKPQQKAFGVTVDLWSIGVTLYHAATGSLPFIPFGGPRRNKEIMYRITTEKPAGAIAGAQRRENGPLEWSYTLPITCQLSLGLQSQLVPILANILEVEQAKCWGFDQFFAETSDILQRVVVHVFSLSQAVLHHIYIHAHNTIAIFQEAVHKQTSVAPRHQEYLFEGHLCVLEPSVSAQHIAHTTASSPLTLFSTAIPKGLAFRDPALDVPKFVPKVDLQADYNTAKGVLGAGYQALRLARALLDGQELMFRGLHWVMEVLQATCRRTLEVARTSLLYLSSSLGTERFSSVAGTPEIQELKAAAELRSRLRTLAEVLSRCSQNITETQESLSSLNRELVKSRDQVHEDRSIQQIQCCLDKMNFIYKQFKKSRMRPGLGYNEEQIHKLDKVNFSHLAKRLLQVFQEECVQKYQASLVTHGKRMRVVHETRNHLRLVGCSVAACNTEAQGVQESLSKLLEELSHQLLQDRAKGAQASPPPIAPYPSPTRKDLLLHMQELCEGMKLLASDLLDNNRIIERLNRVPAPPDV

[12] = molecular target: SRSF protein kinase 3 (Homo sapiens) (UniProt Q9UPE1)
[13] = molecular target: Protein-tyrosine kinase 2-beta (Homo sapiens) (UniProt Q14289)
[14] = molecular target: Serine/threonine-protein kinase WNK1 (Homo sapiens) (UniProt Q9H4A3)
[15] = molecular target: Tyrosine-protein kinase receptor UFO (Homo sapiens) (UniProt P30530)
[16] = molecular target: Calcium/calmodulin-dependent protein kinase type II subunit delta (Homo sapiens) (UniProt Q13557)
[17] = molecular target: Tyrosine-protein kinase SYK (Homo sapiens) (UniProt P43405)
[18] = molecular target: Ephrin type-A receptor 7 (Homo sapiens) (UniProt Q15375)
[19] = molecular target: Serine/threonine-protein kinase SIK1 (Homo sapiens) (UniProt P57059)
[20] = Compound concentration 1000.0 nM
[21] = Compound concentration 100.0 nM

Chain of SRSF protein kinase 3 (Homo sapiens) (Q9UPE1 whole entry): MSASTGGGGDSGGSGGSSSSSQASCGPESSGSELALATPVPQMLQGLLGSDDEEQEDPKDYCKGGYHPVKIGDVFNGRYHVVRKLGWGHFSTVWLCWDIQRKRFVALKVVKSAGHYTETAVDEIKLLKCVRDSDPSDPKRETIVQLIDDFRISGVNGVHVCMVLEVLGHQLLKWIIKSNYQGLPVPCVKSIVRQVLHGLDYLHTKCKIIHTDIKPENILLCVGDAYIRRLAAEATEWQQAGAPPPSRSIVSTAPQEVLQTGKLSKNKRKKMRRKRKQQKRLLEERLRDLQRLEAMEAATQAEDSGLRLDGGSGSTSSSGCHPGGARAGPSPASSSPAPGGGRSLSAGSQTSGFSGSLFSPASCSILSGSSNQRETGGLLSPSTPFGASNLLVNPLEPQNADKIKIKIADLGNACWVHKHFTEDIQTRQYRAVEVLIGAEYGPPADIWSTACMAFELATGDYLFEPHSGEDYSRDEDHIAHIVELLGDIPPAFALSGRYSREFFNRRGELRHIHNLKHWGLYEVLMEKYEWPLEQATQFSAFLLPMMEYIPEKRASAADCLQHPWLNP
Chain of Tyrosine-protein kinase receptor UFO (Homo sapiens) (P30530 whole entry): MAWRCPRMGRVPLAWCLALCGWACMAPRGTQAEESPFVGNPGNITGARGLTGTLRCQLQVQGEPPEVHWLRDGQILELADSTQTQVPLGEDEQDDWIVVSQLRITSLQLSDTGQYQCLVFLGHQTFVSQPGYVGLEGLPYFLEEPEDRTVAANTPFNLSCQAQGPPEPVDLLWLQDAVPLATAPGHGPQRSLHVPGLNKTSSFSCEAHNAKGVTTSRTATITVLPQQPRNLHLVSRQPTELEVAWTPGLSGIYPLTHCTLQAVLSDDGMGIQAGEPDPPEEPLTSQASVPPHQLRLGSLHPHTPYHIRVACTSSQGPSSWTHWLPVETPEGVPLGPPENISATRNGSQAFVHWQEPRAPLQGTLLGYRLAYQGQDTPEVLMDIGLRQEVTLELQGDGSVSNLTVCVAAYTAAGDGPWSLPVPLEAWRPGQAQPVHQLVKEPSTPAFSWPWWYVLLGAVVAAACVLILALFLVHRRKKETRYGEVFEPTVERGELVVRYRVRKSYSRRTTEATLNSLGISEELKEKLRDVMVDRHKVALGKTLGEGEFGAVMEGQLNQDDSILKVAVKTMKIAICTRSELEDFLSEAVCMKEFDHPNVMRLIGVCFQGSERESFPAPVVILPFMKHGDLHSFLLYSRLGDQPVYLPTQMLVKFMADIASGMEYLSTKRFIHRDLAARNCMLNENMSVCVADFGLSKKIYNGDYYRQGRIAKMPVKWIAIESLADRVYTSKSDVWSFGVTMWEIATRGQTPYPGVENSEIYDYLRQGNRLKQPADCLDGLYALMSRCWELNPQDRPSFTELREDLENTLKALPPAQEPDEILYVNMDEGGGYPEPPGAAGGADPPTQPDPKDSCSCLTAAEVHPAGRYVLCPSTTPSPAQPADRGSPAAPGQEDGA
Chain of Protein-tyrosine kinase 2-beta (Homo sapiens) (Q14289 whole entry, looked up): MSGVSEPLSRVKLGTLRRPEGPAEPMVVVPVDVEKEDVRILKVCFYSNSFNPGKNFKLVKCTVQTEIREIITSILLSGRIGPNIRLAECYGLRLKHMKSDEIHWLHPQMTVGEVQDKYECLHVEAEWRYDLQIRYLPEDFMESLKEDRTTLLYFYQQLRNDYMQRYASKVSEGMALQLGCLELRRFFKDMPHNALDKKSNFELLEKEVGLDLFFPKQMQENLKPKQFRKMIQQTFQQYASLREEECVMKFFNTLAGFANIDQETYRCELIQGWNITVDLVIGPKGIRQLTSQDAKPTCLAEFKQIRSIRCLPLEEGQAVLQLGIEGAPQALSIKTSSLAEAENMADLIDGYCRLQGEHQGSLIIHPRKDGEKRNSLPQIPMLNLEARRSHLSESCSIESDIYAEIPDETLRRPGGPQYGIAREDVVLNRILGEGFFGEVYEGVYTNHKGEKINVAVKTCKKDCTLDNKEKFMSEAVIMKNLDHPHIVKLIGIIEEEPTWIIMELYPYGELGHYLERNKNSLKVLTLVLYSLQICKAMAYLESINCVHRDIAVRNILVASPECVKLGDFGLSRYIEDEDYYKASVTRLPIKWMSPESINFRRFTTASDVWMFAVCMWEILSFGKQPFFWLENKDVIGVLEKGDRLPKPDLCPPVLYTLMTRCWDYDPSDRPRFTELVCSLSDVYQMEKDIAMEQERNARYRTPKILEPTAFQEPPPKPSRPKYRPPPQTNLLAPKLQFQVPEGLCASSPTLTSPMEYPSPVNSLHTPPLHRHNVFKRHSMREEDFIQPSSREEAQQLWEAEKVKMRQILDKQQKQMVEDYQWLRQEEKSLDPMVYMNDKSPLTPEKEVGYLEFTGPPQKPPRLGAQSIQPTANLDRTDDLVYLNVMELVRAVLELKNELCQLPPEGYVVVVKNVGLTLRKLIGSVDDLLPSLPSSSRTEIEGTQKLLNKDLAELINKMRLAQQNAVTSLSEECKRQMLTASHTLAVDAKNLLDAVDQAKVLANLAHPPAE
Chain of Serine/threonine-protein kinase STK11 (Homo sapiens) (Q15831 whole entry): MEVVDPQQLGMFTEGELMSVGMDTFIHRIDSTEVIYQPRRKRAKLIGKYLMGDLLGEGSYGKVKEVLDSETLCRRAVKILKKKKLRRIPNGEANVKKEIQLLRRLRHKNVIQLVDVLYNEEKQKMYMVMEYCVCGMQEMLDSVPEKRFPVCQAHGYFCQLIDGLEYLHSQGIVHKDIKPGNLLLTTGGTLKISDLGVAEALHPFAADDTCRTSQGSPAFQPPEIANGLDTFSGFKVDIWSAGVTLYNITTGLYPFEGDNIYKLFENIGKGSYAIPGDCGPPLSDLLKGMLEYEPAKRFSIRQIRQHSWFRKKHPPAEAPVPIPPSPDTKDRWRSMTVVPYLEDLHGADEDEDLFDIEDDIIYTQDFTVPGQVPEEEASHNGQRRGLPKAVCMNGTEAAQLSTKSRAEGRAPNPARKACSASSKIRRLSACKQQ
Chain of Tyrosine-protein kinase ABL2 (Homo sapiens) (P42684 whole entry): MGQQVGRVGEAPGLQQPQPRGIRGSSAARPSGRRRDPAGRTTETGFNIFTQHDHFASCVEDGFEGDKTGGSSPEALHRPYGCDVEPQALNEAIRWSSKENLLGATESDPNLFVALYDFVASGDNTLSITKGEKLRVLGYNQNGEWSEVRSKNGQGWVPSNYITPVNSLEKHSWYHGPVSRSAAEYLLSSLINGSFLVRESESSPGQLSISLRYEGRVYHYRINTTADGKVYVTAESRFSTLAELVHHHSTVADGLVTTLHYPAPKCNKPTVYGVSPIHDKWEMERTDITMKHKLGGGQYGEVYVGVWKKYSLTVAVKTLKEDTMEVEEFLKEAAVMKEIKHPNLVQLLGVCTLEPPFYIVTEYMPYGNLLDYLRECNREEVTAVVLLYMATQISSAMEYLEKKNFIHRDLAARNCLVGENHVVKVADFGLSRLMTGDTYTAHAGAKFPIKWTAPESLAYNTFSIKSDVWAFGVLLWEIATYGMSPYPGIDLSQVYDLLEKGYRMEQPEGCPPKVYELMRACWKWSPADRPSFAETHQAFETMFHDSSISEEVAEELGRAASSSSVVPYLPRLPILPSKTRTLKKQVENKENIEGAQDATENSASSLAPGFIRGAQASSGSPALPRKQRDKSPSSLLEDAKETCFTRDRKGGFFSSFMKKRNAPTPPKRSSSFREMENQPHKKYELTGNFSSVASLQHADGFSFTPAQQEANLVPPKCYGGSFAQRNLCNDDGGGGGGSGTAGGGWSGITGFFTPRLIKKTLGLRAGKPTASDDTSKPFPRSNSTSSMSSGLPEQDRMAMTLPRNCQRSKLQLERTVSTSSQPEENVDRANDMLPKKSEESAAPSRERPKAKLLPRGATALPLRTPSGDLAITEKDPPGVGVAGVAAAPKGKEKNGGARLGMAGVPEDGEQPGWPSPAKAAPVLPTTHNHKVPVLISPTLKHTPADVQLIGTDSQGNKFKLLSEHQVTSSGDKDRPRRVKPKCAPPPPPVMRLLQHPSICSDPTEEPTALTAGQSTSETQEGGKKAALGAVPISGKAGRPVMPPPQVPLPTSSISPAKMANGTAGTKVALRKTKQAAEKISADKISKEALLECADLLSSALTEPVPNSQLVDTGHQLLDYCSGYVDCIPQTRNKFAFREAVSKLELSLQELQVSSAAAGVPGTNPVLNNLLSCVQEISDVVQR
Chain of Calcium/calmodulin-dependent protein kinase type II subunit alpha (Homo sapiens) (Q9UQM7 whole entry): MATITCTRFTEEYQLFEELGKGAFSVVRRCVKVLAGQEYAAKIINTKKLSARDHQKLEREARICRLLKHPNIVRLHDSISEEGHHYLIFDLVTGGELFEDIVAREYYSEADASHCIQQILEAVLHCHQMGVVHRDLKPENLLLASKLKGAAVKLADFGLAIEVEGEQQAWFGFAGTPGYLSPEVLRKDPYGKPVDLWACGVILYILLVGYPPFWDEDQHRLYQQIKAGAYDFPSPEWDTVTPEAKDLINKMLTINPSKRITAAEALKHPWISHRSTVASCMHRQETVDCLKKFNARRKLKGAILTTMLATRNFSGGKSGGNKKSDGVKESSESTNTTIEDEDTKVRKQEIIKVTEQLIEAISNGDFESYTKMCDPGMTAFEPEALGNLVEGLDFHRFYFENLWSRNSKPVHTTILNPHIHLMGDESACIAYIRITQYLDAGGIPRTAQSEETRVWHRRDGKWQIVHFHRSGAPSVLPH

C[C@@H]1CN(c2cc(-c3nn(C)c4ccc(OC5(C)CC5)cc34)ncn2)C[C@H](C)O1 [MLi-2-NC]
inactive: inhibition [1] 18.7% | residual activity [2, 20] 94% | residual activity [3, 20] 92% | residual activity [4, 20] 74% | residual activity [5, 20] 100% | residual activity [6, 20] 98% | residual activity [7, 20] 57% | residual activity [8, 20] 100% | residual activity [9, 20] 100% | residual activity [10, 20] 100% | residual activity [11, 20] 65% | residual activity [12, 20] 98% | residual activity [13, 20] 77% | residual activity [14, 20] 82% | residual activity [15, 20] 100% | residual activity [16, 20] 88% | residual activity [17, 20] 89% | residual activity [18, 20] 99% | residual activity [19, 20] 96%

C[C@@H]1CN(c2cc(-c3n[nH]c4ccc(OC5(C)CC5)cc34)ncn2)C[C@H](C)O1 [MLi-2]
inactive: inhibition [1] 7.65% | residual activity [2, 21] 83% | residual activity [3, 21] 100% | residual activity [4, 21] 80% | residual activity [5, 21] 95% | residual activity [6, 21] 100% | residual activity [7, 21] 87% | residual activity [8, 21] 83% | residual activity [9, 21] 73% | residual activity [10, 21] 94% | residual activity [11, 21] 74% | residual activity [12, 21] 100% | residual activity [13, 21] 100% | residual activity [14, 21] 89% | residual activity [15, 21] 100% | residual activity [16, 21] 100% | residual activity [17, 21] 96% | residual activity [18, 21] 82% | residual activity [19, 21] 100%
